These results are taken from patent US10602743B2, “Method of inducing drought/salt tolerance using Bacillus megaterium” (Marrone Bio Innovations, Inc., priority 2012, dated 2020).

One series has as its system Vero cells. As to conditions: cited from earlier work.
The subject of the next series is Bacillus megaterium M018. The series can be described thus: Antibiotic susceptibility, antibiotic disks on Muller-Hinton medium. Type of series: cell-based. More on the design: key: +++ (very); ++ (somewhat); + (marginally); resistance is indicated by (−). As to conditions: antibiotic disk, 48-hour incubation at 25° C. The procedure:
(§1) Antibiotic susceptibility of Bacillus megaterium strains H491, J142 and M018 was tested using antibiotic disks on Muller-Hinton medium as described in PML Microbiological's technical data sheet #535.

The subject of a further series is Bacillus megaterium H491. Described as above. Format: cell-based. Also noted: key: +++ (very); ++ (somewhat); + (marginally); resistance is indicated by (−). As to conditions: antibiotic disk, 48-hour incubation at 25° C. On the procedure: as §1
In a further series the test system is Bacillus megaterium J142. Described as above. Type of series: cell-based. Also noted: key: +++ (very); ++ (somewhat); + (marginally); resistance is indicated by (−). As to conditions: antibiotic disk, 48-hour incubation at 25° C. On the procedure:
as §1

In series [1] the test system is Bacillus megaterium strain H491. The series can be described thus: Chemical sensitivity, Biolog Phenotypic Microarray. Type of series: cell-based. As to conditions: Biolog Phenotypic Microarray.

On to `Nc1ncnc2c1ncn2[C@@H]1O[C@H](CO)[C@H]1CO` [Oxetanocin, 9-[(2R,3R,4S)-3,4-bis(hydroxymethyl)-2-oxetanyl]adenine], for which the “Cytotoxicity against Vero cells (50% inhibition of cell growth)” value in the series with Vero cells is on record as 132.6 μg/well.
As for `[H]/N=C(/N)N[C@H]1[C@H](O)[C@@H](O)[C@H](O[C@@H]2O[C@@H](C)[C@](O)(C=O)[C@H]2O[C@@H]2O[C@@H](CO)[C@H](O)[C@@H](O)[C@@H]2NC)[C@@H](N/C(N)=N\[H])[C@@H]1O` [Streptomycin], the “Susceptibility degree of M018” value in the series on Bacillus megaterium M018 is reported as “+”. The “Susceptibility degree of H491” value with Bacillus megaterium H491 is given as “+++”. The “Susceptibility degree of J142” value in the series with Bacillus megaterium J142 is reported as “+++”. Further, the “H491 susceptible to compound” value in series [1] (25° C.) was “susceptible”.
Consider Gentamicin, for which the “Susceptibility degree of M018” value in the series with Bacillus megaterium M018 was “+++”. Further, the “Susceptibility degree of H491” value with Bacillus megaterium H491 is recorded as “+++”. The “Susceptibility degree of J142” value in the series on Bacillus megaterium J142 is “+++”. Also, the “Resistance of H491 observed in wells containing compound” value in series [1] (at a maximum concentration of 4 ug) is listed as “Resistance”.
